Experimental data as given in patent publication US5045566A, “Novel imidate insecticides” (ICI Americas Inc., priority 1989, dated 1991).

Columns and labels:
Type in all cases: in vivo
[1] = tested on: Beet Armyworm (Spodoptera exigua); assay: Beet armyworm leaf dip (BAW), 5 days; settings: percent in solution; second-instar larvae; five days
Description: (§1) The compounds in Tables 1 and 2 above were tested for insecticidal activity using the following testing procedures. LC50 values, based on the results of these tests and calculated according to dosage-mortality curves, are expressed in Table 3.
Beet Armyworm (Spodoptera exigua):
Test compounds were diluted in a 50-50 acetone-water solution. Young leaves of sugar beets (Beta vulgaris) were immersed in the test solutions for 2-3 seconds and placed on a wire screen to dry. The dried leaves were placed in petri dishes containing a moistened filter paper and infested with five second-instar beet armyworm larvae. The dishes were placed in a high humidity chamber. Mortality of the larvae was recorded five days later. Test concentrations ranged from 0.1% downward. The LC-50 values are expressed below in Table 3 under the heading "BAW" in terms of percent of the test compound in solution.

[2] = tested on: Black Bean Aphid [Aphis fabae (Scop.)]; assay: Black bean aphid spray test on nasturtium (BBA), 48 hours; settings: percent of test compound in sprayed solution
Summary of the method: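 LC50, given as percent test compound in the sprayed liquid, was calculated from dosage-mortality curves using concentrations from 0.05% downward. Sprays in 50:50 acetone-water went to runoff on ~5 cm nasturtiums carrying 25-50 aphids of mixed ages, one day after infestation. Deaths were counted 48 h later under greenhouse conditions.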

[3] = tested on: Tobacco Budworm [Heliothis virescens (Fabricius)] eggs; assay: Tobacco budworm eggs (TBW-E); settings: percent in solution; 2-day old eggs
Summary of the method: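 LC50 is given as percent compound in the dipping solution, fitted from dosage-mortality curves. Two-day-old eggs on paper towel were dipped in acetone solutions (top concentration 0.1%), kept at 78° F on rearing medium, and scored after control hatch and larval feeding.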

[4] = tested on: Aster Leafhopper [Macrosteles fascifrens (Stal)]; assay: Aster leafhopper on dipped oat seedlings (LH), 48 hours; settings: percent in solution, adults/nymphs
Summary of the method: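 LC50 values, given as percent of test compound in the dip solution, were derived from dosage-mortality curves over concentrations from 0.05% downward. Mortality was counted 48 hours after ten leafhopper adults/nymphs were enclosed on treated seedlings. The seedlings were oats, about 10 cm tall, briefly dipped in 50-50 acetone-water.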

[5] = tested on: Housefly [Musca domestica]; assay: Housefly contact mortality in dishes (HF), 48 hours; settings: μg of test compound per 25 female flies
Summary of the method: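 Dry-film exposure of 25 female houseflies per cage, 48 h; LC50 as μg per 25 flies.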

[6] = tested on: Cabbage Looper [Trichoplusia ni (Hubner)]; assay: Cabbage looper leaf dip (CL), 3-5 days; settings: percent in solution, second-instar larvae
Summary of the method: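 LC50, as percent test compound in solution, derived from dosage-mortality curves; concentrations started at 0.1% and went lower. Five second-instar larvae per dish fed on acetone-water-dipped, dried squash cotyledons in a humid chamber. Deaths recorded 3-5 days post-infestation.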

[7] = tested on: Maize weevil [Sitophilus zeamais (Motschulsky)]; assay: Maize weevil on dipped corn seeds (MW), 48 hours; settings: percent in solution, adult weevils
Summary of the method: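 LC50, given as percent of compound in dipping solution, comes from dosage-mortality curves over concentrations descending from 0.01%. Four corn seeds soaked 2-3 s in 50:50 acetone:water solution were dried and held with 10 adult weevils, about 25° C, mortality read after 48 h.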

[8] = tested on: Tobacco Budworm [Heliothis virescens (Fabricius)] larvae; assay: Tobacco budworm larvae, contact (TBW-C), 5 days; settings: percent in solution, second-instar larvae
Description: as §1
Tobacco Budworm [Heliothis virescens (Fabricius)]:
(a) Contact: Test compounds were diluted in a 50-50 acetone-water solution. Cotton (Gossypium sp.) cotyledons were immersed in the test solutions for 2-3 seconds and placed on a wire screen to dry. The dried leaves were placed in petri dishes containing a moistened piece of filter paper and infested with 5 second-instar tobacco budworm larvae. The dishes were placed in a high humidity chamber for 5 days, and percent mortality of the larvae recorded. Test concentrations ranged from 0.1% downward. The LC-50 values are expressed below in Table 3 under the heading "TBW-C" in terms of percent of the test compound in the solution.

SMILES	LC50 BAW [1]	LC50 BBA [2]	LC50 TBW E (eggs) [3]	LC50 LH [4]	LC50 HF [5]	LC50 CL [6]	LC50 MW [7]	LC50 TBW C (contact) [8]
CC(C)C(=Nc1cccc(Cl)c1)OCc1cccc(Oc2ccccc2)c1 [Compound 7]	0.006%	0.0003%	0.009%	0.0002%	8 µg	0.006%		
CC(C)C(=Nc1ccc(Cl)c(Cl)c1)OCc1cccc(Oc2ccccc2)c1 [Compound 14]	0.005%	0.0003%		0.001%	40 µg	0.004%	0.01%	
Clc1ccc(N=C(OCc2cccc(Oc3ccccc3)c2)C2CC2)cc1 [Compound 32]	0.03%	0.003%		> 0.05%	37 µg	0.003%	> 0.01%	
Clc1ccccc1N=C(OCc1cccc(Oc2ccccc2)c1)C(Cl)Cl [Compound 34]	0.015%	> 0.05%	> 0.1%		> 100 µg	0.015%		0.01%
CC(C)C(=Nc1ccc(F)cc1)OCc1cccc(Oc2ccccc2)c1 [Compound 46]	0.006%	0.003%	0.016%	0.002%	7 µg	0.003%		
CC(C)C(=Nc1ccc(F)cc1)OCc1ccc(F)c(Oc2ccccc2)c1 [Compound 53]	0.003%	0.001%	0.02%		2 µg	0.0005%		0.0025%
FC(F)(F)c1ccc(N=C(OCc2cccc(Oc3ccccc3)c2)C2CC2)cc1 [Compound 62]	0.02%	0.001%		> 0.05%	20 µg	0.005%	> 0.01%	
FC(F)(F)Oc1ccc(N=C(OCc2cccc(Oc3ccccc3)c2)C2CC2)cc1 [Compound 63]	0.005%	0.0003%		0.0001%	30 µg	0.005%	> 0.01%	
FC(F)(F)c1ccc(N=C(OCc2cccc(Oc3ccccc3)c2)C2CC2)c(Cl)c1 [Compound 65]	> 0.1%	> 0.05%		> 0.05%	> 100 µg	< 0.01%		
CC(C)C(=Nc1cccc(C(F)(F)F)c1)OCc1cccc(Oc2ccccc2)c1 [Compound 67]	0.006%	0.0002%	0.01%	0.00027%	15 µg	0.001%		
Cc1c(Cl)cccc1N=C(OCc1cccc(Oc2ccccc2)c1)C(Cl)Cl [Compound 97]	0.01%	0.001%	0.04%		10 µg	0.002%		0.004%
CCC(C)C(=Nc1ccc(F)c(Cl)c1)OCc1cccc(Oc2ccccc2)c1 (stereo not shown) [Compound 122]	0.01%	> 0.05%	0.05%	> 0.05%	37 µg	0.0007%	> 0.01%	
Cc1ccc(N=C(OCc2cccc(Oc3ccccc3)c2)C(Cl)Cl)cc1 [Compound 139]	0.007%	0.001%	0.05%		4.2 µg	0.015%		0.005%
CC(C)C(=Nc1ccc(F)c(Cl)c1)OCc1cccc(Oc2ccc(Cl)cc2)n1 [Compound 463]	0.0024%	0.05%	0.0075%	0.0003%	8 µg	0.00009%	0.01%	
